target: SARS-COV-2 3CLpro/Mpro protease (Severe acute respiratory syndrome coronavirus 2 (2019-nCoV) (SARS-CoV-2), UniProt P0DTD1); experiment: Inhibitory effect on SARS-COV-2 3CLpro/Mpro protease by fluorescence resonance energy transfer; type: biochemical; conditions: IC50 (nM), Inhibition on SARS-CoV-2 3CLpro/Mpro protease, activity intervals A-D

Row | Structure (SMILES) | IC50 [nM]
1 | CNc1cncc(C(=O)N2CCC[C@@H](Nc3c(C(=O)N4CC5CCC(C4)N5)cc(Br)cc3[N+](=O)[O-])C2)c1 [Example 276] | 10 to 50

same assay, conditions: activity intervals A-D, read-out: IC50 (nM), Inhibition on SARS-CoV-2 3CLpro/Mpro protease

Row | Structure (SMILES) | IC50 [nM]
2 | CNc1cncc(C(=O)N2C[C@H](Nc3c(C(=O)N4C[C@@H](C)O[C@@H](C)C4)cc(Br)cc3[N+](=O)[O-])C[C@H]2C(=O)Nc2ncc(Br)cn2)c1 [Example 445, (2S,4R)-4-((4-bromo-2-((2R,6S)-2,6-dimethylmorpholin-4-carbonyl)-6-nitrophenyl)amino)-N-(5-bromopyrimidin-2-yl)-1-(5-(methylamino)nicotinoyl) pyrrolidine-2-formamide] | 50 to 100
3 | C=C[C@@H]1CN(C(=O)c2cc(Br)cc([N+](=O)[O-])c2N[C@@H]2CCCN(C(=O)c3cncc(NC)c3)C2)CCO1 [Example 344] | 10 to 50
4 | COCCN1CCN(C(=O)c2cc(Br)cc([N+](=O)[O-])c2N[C@H]2CN(C(=O)c3cncc(I)c3)CC2(C)C)CC1 [Example 190] | 10 to 50
5 | O=C(c1cncc(I)c1)N1CC(Nc2c(C(=O)N3CCCCC3)cc(Br)cc2[N+](=O)[O-])C(F)(F)C1 (centres unmarked) [Example 165] | 10 to 50
6 | O=C(c1cc(Br)cc([N+](=O)[O-])c1N[C@@H]1CCCN(C(=O)c2cncc3ccccc23)C1)N1CCC(F)(F)CC1 [Example 6, (R)-(5-bromo-2-((1-(isoquinolin-4-carbonyl)piperidin-3-yl)amino)-3-nitrophenyl)(4,4-difluoropiperidin-1-yl)methanone] | < 10
7 | O=C(c1cncc(I)c1)N1C[C@H](Nc2c(C(=O)N3CCC(F)(F)CC3)cc(Br)cc2[N+](=O)[O-])C(F)(F)C1 [Example 192] | 10 to 50
8 | C[C@@H]1CN(C(=O)c2cc(Br)cc([N+](=O)[O-])c2N[C@@H]2CCCN(C(=O)c3cc(=O)[nH]c4ccccc34)C2)C[C@H](C)O1 [Example 133] | 10 to 50
9 | O=C(c1cc(Br)cc([N+](=O)[O-])c1N[C@@H]1CCCN(C(=O)c2cnnc3ccccc23)C1)N1CCCCC1 [Example 11, (R)-(5-bromo-2-((1-(4-cinnolin-carbonyl)piperidin-3-yl)amino)-3-nitrophenyl)(piperidin-1-yl)methanone] | 50 to 100
10 | CNc1cncc(C(=O)N2C[C@H](Nc3c(C(=O)N4C[C@@H](C)O[C@@H](C)C4)cc(Br)cc3[N+](=O)[O-])C[C@H]2C(=O)N2CCc3nn(C)cc3C2)c1 [Example 365] | 50 to 100
11 | O=C(N[C@H]1CCCC[C@H]1Nc1c(C(=O)N2C[C@@H](O)CO2)cc(Br)cc1[N+](=O)[O-])c1cncc2cc(Cl)ccc12 [Example 122] | 10 to 50
12 | CNc1cncc(C(=O)N2C[C@H](Nc3c(C(=O)N4C[C@@H](C)O[C@@H](C)C4)cc(Br)cc3[N+](=O)[O-])[C@@H](OCCOC)C2)c1 [Example 405] | 10 to 50
13 | CNc1cncc(C(=O)N2C[C@H](Nc3c(C(=O)N4C[C@@H](C)O[C@@H](C)C4)cc(Br)cc3[N+](=O)[O-])C[C@H]2C(=O)Nc2cn(C)nc2Br)c1 [Example 412] | 50 to 100
14 | CNc1cncc(C(=O)N2CCC[C@@H](Nc3c(C(=O)N4CCN(CCOC)[C@@H](C)C4)cc(Br)cc3[N+](=O)[O-])C2)c1 [Example 247] | 10 to 50
15 | CNc1cncc(C(=O)N2C[C@H](Nc3c(C(=O)N4C[C@@H](C)O[C@H](C)C4)cc(Br)cc3[N+](=O)[O-])C(C)(C)C2)c1 [Example 187] | 10 to 50
16 | CNc1cncc(C(=O)N2CCC[C@@H](Nc3c(C(=O)N4CCO[C@@H](C(F)(F)F)C4)cc(Br)cc3[N+](=O)[O-])C2)c1 [Example 288] | 10 to 50
17 | CNc1cncc(C(=O)N2CCC[C@@H](Nc3c(C(=O)N4CCO[C@@H](C)C4)cc(Br)cc3[N+](=O)[O-])C2)c1 [Example 219] | 10 to 50
18 | CNc1cncc(C(=O)N2CC(Nc3c(C(=O)N4CCN(CCOC)CC4)cc(Br)cc3[N+](=O)[O-])C(F)(F)C2)c1 (centres unmarked) [Example 298] | 10 to 50
19 | CNc1cncc(C(=O)N2C[C@H](Nc3c(C(=O)N4C[C@@H](C)O[C@@H](C)C4)cc(Br)cc3[N+](=O)[O-])C[C@H]2C(=O)NCCOC)c1 [Example 394] | 50 to 100
20 | Cc1cc(C(=O)N2C[C@H](Nc3c(C(=O)N4CCC(C)(C)CC4)cc(Br)cc3[N+](=O)[O-])C3(CC3)C2)cc(=O)[nH]1 [Example 93] | 10 to 50
21 | CNc1cncc(C(=O)N2C[C@H](Nc3c(C(=O)N4C[C@@H](C)O[C@@H](C)C4)cc(Br)cc3[N+](=O)[O-])C[C@H]2C(=O)Nc2ccc(C(F)(F)F)nc2)c1 [Example 416] | 100 to 200
22 | CNc1cncc(C(=O)N2CCC[C@@H](Nc3c(C(=O)N4CCCCC4)cc(Br)cc3C(F)(F)F)C2)c1 [Example 319] | 50 to 100
23 | CNc1cncc(C(=O)N2CCC[C@@H](Nc3c(C(=O)N4CCC5(CCCCO5)CC4)cc(Br)cc3[N+](=O)[O-])C2)c1 [Example 270] | 10 to 50
24 | CNc1cncc(C(=O)N2C[C@H](Nc3c(C(=O)N4C[C@@H](C)O[C@@H](C)C4)cc(Br)cc3[N+](=O)[O-])C[C@H]2C(=O)Nc2ccc3nn(C)cc3c2Cl)c1 [Example 425] | 100 to 200
25 | O=C(c1cc(Br)cc([N+](=O)[O-])c1N[C@@H]1CCCN(C(=O)C2CNCC(F)(F)C2)C1)N1CCCC(F)(F)C1 (stereo in doubt) [Example 331] | 10 to 50
26 | O=C(c1cc(Br)cc([N+](=O)[O-])c1N[C@@H]1CCCN(C(=O)c2cc(=O)[nH]c3ccccc23)C1)N1CCN(CC(F)(F)F)CC1 [Example 138] | 10 to 50
27 | O=C(c1cc(Br)cc([N+](=O)[O-])c1N[C@@H]1CCN(C(=O)c2cncc3ccccc23)C1)N1CCCC1 [Example 40] | 10 to 50

Row | Structure (SMILES) | IC50 [nM]
28 | CNc1cncc(C(=O)N2CCC[C@@H](Nc3c(C(=O)N4CCC(F)(F)CC4)cc(Br)cc3[N+](=O)[O-])C2)c1 [Example 279] | 10 to 50
29 | CNc1cncc(C(=O)N2CCC[C@@H](Nc3c(C(=O)N4CCC[C@H](C)C4)cc(Br)cc3[N+](=O)[O-])C2)c1 [Example 256] | 10 to 50
30 | CNc1cncc(C(=O)NC[C@@H](COC)Nc2c(C(=O)N3CCCCC3)cc(Br)cc2[N+](=O)[O-])c1 [Example 301] | 50 to 100
31 | CNc1cncc(C(=O)N2C[C@H](Nc3c(C(=O)N4C[C@@H](C)O[C@@H](C)C4)cc(Br)cc3[N+](=O)[O-])C[C@H]2C(=O)NCc2ccccc2)c1 [Example 390] | 10 to 50
32 | CNc1cncc(C(=O)N2CCC[C@@H](Nc3c(C(=O)N4CCC(C)(C)CC4)cc(Br)cc3[N+](=O)[O-])C2)c1 [Example 252] | 10 to 50
33 | O=C(c1cncc(Br)c1)N1CC[C@@H](Nc2c(C(=O)N3CCC(F)(F)CC3)cc(Br)cc2C(F)(F)F)C1 [Example 69] | 50 to 100
34 | CNc1cncc(C(=O)N2C[C@H](Nc3c(C(=O)N4C[C@@H](C)O[C@@H](C)C4)cc(Br)cc3[N+](=O)[O-])CC2C(=O)NCC(F)(F)F)c1 (some centres unmarked) [Example 380] | 10 to 50
35 | CNc1cncc(C(=O)N2CC(Nc3c(C(=O)N4CCC5(CCCCC5)CC4)cc(Br)cc3[N+](=O)[O-])C(C)(C)C2)c1 (centres unmarked) [Example 171] | 10 to 50
36 | CNc1cncc(C(=O)N[C@H]2CCCC[C@H]2Nc2c(C(=O)N3CCO[C@H](C)C3)cc(Br)cc2[N+](=O)[O-])c1 [Example 237] | 10 to 50
37 | O=C(c1cc(Br)cc([N+](=O)[O-])c1N[C@@H]1CCCN(C(=O)c2cc(=O)[nH]c3cc(Cl)ccc23)C1)N1CCCCC1 [Example 128] | 10 to 50
38 | CNc1cncc(C(=O)N2CCC[C@@H](Nc3c(C(=O)N4C[C@H](C)C[C@H](C)C4)cc(Br)cc3[N+](=O)[O-])C2)c1 [Example 251] | 50 to 100
39 | CNc1cncc(C(=O)N2C[C@H](Nc3c(C(=O)N4C[C@@H](C)N[C@@H](C)C4)cc(Br)cc3[N+](=O)[O-])C3(CC3)C2)c1 [Example 21] | 10 to 50
40 | O=C(N[C@H]1CCCC[C@H]1Nc1c(C(=O)N2CCCCC2)cc(Br)cc1[N+](=O)[O-])c1cncc(Br)c1 [Example 14] | 10 to 50
41 | C[C@@H]1CN(C(=O)c2cc(Br)cc([N+](=O)[O-])c2N[C@@H]2CCCN(C(=O)c3cncc4[nH]ncc34)C2)C[C@H](C)O1 [Example 144] | 10 to 50
42 | CNc1cncc(C(=O)N2C[C@H](Nc3c(C(=O)N4C[C@@H](C)O[C@@H](C)C4)cc(Br)cc3[N+](=O)[O-])C[C@H]2COC)c1 [Example 447] | 50 to 100
43 | Nc1cncc(C(=O)N2CCC[C@@H](Nc3c(C(=O)N4CCC(F)(F)CC4)cc(Br)cc3[N+](=O)[O-])C2)c1 [Example 71] | 10 to 50
44 | CNc1cncc(C(=O)N2C[C@H](Nc3c(C(=O)N4C[C@@H](C)O[C@@H](C)C4)cc(Br)cc3[N+](=O)[O-])C[C@@H](OCCOC)C2)c1 [Example 446] | 10 to 50
45 | Cc1cc(C(=O)N2C[C@H](Nc3c(C(=O)NCC(F)(F)F)cc(Br)cc3[N+](=O)[O-])C3(CC3)C2)cc(=O)[nH]1 [Example 89] | 10 to 50
46 | COCCN1CCN(C(=O)c2cc(Br)cc([N+](=O)[O-])c2N[C@@H]2CCOC[C@@H]2NC(=O)c2cncc3ccccc23)CC1 [Example 227] | 10 to 50
47 | CNc1cncc(C(=O)N2C[C@H](Nc3c(C(=O)N4C[C@@H](C)O[C@@H](C)C4)cc(Br)cc3[N+](=O)[O-])C[C@H]2C(=O)NCc2ccnc(F)c2)c1 [Example 426] | 100 to 200
48 | C[C@H]1CN(C(=O)c2cc(Br)cc([N+](=O)[O-])c2N[C@@H]2CCCN(C(=O)c3cc(=O)[nH]c4ccccc34)C2)CCO1 [Example 130] | 10 to 50
49 | C[C@@H]1CN(C(=O)c2cc(Br)cc([N+](=O)[O-])c2N[C@@H]2CCCN(C(=O)c3cncc(Br)c3)C2)C[C@H](C)N1 [Example 73] | 10 to 50
50 | CNc1cncc(C(=O)N2C[C@H](Nc3c(C(=O)N4C[C@@H](C)O[C@@H](C)C4)cc(Br)cc3[N+](=O)[O-])C[C@H]2C(=O)Nc2nn(C3C[C@@H](C)O[C@@H](C)C3)cc2Br)c1 (some centres unmarked) [Example 438] | 10 to 50
51 | CNc1cncc(C(=O)N2C[C@H](Nc3c(C(=O)N4C[C@@H](C)O[C@@H](C)C4)cc(Br)cc3[N+](=O)[O-])[C@@H](OCc3ccccn3)C2)c1 [Example 458] | 10 to 50
52 | O=C(c1cncc(Br)c1)N1C[C@H](Nc2c(C(=O)N3CCC(F)(F)CC3)cc(Br)cc2[N+](=O)[O-])C(F)(F)C1 [Example 183] | 10 to 50
53 | O=C(N[C@H]1CCOC[C@H]1Nc1c(C(=O)N2CCCCC2)cc(Br)cc1[N+](=O)[O-])c1cncc2cc(Cl)ccc12 [Example 184] | < 10

Source: patent US20250042889A1, “3CLPRO PROTEASE INHIBITOR” (SHANGHAI QILU PHARMACEUTICAL RESEARCH AND DEVELOPMENT …, priority 2021, published 2025)
